Data on 41 compounds can be found in ChEMBL document CHEMBL3039007, “Structure-based identification of OATP1B1/3 inhibitors” (Mol Pharmacol, 2013).

The target in series [1] is T1, Solute carrier organic anion transporter family member 1B1 (Homo sapiens, UniProt Q9Y6L6).
T1 sequence (Q9Y6L6 whole entry): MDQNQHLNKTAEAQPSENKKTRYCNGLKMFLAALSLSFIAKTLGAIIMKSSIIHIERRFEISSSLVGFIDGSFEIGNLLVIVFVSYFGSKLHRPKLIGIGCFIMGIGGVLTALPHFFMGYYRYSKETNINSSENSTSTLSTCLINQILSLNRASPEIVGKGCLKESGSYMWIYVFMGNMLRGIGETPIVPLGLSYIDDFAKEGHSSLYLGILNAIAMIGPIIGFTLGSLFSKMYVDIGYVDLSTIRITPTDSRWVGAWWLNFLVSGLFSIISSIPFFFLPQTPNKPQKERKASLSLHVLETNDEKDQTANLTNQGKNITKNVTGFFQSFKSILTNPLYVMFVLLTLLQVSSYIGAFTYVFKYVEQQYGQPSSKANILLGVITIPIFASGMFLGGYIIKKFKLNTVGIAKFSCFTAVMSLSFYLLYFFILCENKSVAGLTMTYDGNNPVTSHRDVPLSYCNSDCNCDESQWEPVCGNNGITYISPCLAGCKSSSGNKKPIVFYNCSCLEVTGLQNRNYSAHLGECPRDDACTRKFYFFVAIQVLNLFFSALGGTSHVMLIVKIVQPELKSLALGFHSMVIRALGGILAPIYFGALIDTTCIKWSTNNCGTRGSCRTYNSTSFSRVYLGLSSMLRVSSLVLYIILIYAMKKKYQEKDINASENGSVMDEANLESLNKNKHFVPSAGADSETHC
The note with it: chinese hamster, cho, 10 µM.

Series [2] has as its target T2, Solute carrier organic anion transporter family member 1B3 (Homo sapiens, UniProt Q9NPD5).
T2 sequence (Q9NPD5 whole entry): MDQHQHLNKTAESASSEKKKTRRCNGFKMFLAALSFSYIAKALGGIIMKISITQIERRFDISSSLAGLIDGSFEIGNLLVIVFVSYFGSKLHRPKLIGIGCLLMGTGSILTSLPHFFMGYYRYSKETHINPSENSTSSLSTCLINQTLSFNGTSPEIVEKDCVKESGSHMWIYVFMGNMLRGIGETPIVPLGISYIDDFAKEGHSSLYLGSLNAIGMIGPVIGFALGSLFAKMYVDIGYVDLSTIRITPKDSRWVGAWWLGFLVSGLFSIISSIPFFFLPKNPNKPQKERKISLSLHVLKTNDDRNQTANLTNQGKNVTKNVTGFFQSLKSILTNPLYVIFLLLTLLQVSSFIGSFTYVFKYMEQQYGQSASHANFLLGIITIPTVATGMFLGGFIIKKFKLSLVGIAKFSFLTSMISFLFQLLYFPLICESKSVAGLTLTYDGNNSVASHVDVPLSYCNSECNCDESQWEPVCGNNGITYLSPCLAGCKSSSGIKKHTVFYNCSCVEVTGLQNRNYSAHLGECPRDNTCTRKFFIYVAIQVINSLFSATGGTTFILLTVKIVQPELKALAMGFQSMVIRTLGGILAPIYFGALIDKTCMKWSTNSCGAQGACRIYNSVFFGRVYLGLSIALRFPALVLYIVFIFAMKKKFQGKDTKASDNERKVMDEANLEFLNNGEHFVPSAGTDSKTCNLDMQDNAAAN
The note with it: chinese hamster, cho, 10 µM.

Molecules are shown by their SMILES.

Take `CC1(C)C2(Cl)C(Cl)C(Cl)C(Cl)(C(Cl)Cl)C1(Cl)C2Cl` (configuration not stated) [STROBANE]: the residual activity is given as 106.1% in series [1] and 105.4% in series [2].
On to `O=C1C[C@@H]2OCC=C3CN4CC[C@]56c7ccccc7N1[C@H]5[C@H]2[C@H]3C[C@H]46` [STRYCHNINE], for which the residual activity in series [1] is on record as 79.74%; in series [2] it was 93.97%.
On to `CC(=O)CC(=O)CCC(=O)O` [SUCCINYLACETONE], for which the residual activity in series [1] came out at 92.01%; in series [2], 94.95%.
Taken in the same sequence, the figures for `Clc1ccc(CSC(Cn2ccnc2)c2ccc(Cl)cc2Cl)cc1.O=[N+]([O-])O` (configuration not stated) [SULCONAZOLE NITRATE] were 116.2% and 107.6%.
On to `Nc1ccc(S(=O)(=O)NC(=O)c2ccccc2)cc1` [SULFABENZAMIDE], for which the residual activity in series [1] was 84.77%; in series [2], 94.35%.
Taken in the same sequence, the figures for `Nc1ccc(S(=O)(=O)Nc2ccc(Cl)nn2)cc1` [SULFACHLORPYRIDAZINE] were 134.9% and 95.19%.
On to `Nc1ccc(S(=O)(=O)Nc2ncccn2)cc1` [SULFADIAZINE], for which the residual activity in series [1] was 90.81%; in series [2], 74.08%.
Taken in the same sequence, the figures for `COc1cc(NS(=O)(=O)c2ccc(N)cc2)nc(OC)n1` [SULFADIMETHOXINE] were 118.7% and 103%.
Taken in the same sequence, the figures for `[H]/N=C(/N)NS(=O)(=O)c1ccc(N)cc1` [SULFAGUANIDINE] were 119.2% and 108%.
For `Cc1ccnc(NS(=O)(=O)c2ccc(N)cc2)n1` [SULFAMERAZINE], in that order: 84.88% and 101.2%.
Turning to `Cc1cc(C)nc(NS(=O)(=O)c2ccc(N)cc2)n1` [SULFAMETHAZINE], the residual activity worked out at 90.46% in series [1] and 97.37% in series [2].
Taken in the same sequence, the figures for `Cc1nnc(NS(=O)(=O)c2ccc(N)cc2)s1` [SULFAMETHIZOLE] were 89.01% and 100.6%.
For `Cc1cc(NS(=O)(=O)c2ccc(N)cc2)no1` [SULFAMETHOXAZOLE], in that order: 104.3% and 94.47%.
For `COc1cc(NS(=O)(=O)c2ccc(N)cc2)ncn1` [SULFAMONOMETHOXINE], in that order: 109.8% and 105.3%.
In the case of `Nc1ccc(S(N)(=O)=O)cc1` [SULFANILAMIDE], the residual activity in series [1] came out at 113.8%; in series [2], 155.8%.
Regarding `Nc1ccc(S(=O)(=O)Nc2ccnn2-c2ccccc2)cc1` [SULFAPHENAZOLE], the residual activity in series [1] came to 104.5%; in series [2], 98.59%.
For `Nc1ccc(S(=O)(=O)Nc2ccccn2)cc1` [SULFAPYRIDINE], in that order: 73.46% and 105.2%.
As to `Nc1ccc(S(=O)(=O)[N-]c2cnc3ccccc3n2)cc1.[Na+]` [SULFAQUINOXALINE SODIUM], the residual activity turned out to be 73.75% in series [1] and 102.9% in series [2].
For `O=C(O)c1cc(/N=N/c2ccc(S(=O)(=O)Nc3ccccn3)cc2)ccc1O` [SULFASALAZINE], in that order: 126.2% and 72.91%.
Take `Nc1ccc(S(=O)(=O)Nc2nccs2)cc1` [SULFATHIAZOLE]: the residual activity in series [1] is recorded as 89.12%; in series [2], 85.21%.
Taken in the same sequence, the figures for `O=C1C(CC[S+]([O-])c2ccccc2)C(=O)N(c2ccccc2)N1c1ccccc1` (configuration not stated) [SULFINPYRAZONE] were 55.19% and 43.93%.
`Cc1noc(NS(=O)(=O)c2ccc(N)cc2)c1C` [SULFISOXAZOLE]: the residual activity came to 78.99% in series [1] and 90.16% in series [2].
Taken in the same sequence, the figures for `COc1cc([S+](C)[O-])ccc1-c1nc2ncccc2[nH]1` (configuration not stated) [SULMAZOLE] were 107.4% and 116.5%.
For `CCCCCCCCNC(C)C(O)c1ccc(SC(C)C)cc1` (configuration not stated) [SULOCTIDIL], in that order: 143.8% and 108.7%.
For `CCN1CCCC1CNC(=O)c1cc(S(N)(=O)=O)ccc1OC` (configuration not stated) [SULPIRIDE], in that order: 121.8% and 106.2%.
On to `COC(=O)C(C)c1ccc(C(=O)c2cccs2)cc1` (configuration not stated) [SUPROFEN METHYL ESTER], for which the residual activity in series [1] worked out at 93.7%; in series [2] it was 95.34%.
Taken in the same sequence, the figures for `CC(C(=O)O)c1ccc(C(=O)c2cccs2)cc1` (configuration not stated) [SUPROFEN] were 108.5% and 96.21%.
For `C/C=C(\C)C(=O)O[C@@H]1[C@@H]2C=C3[C@@H]4CC(=O)O[C@@H](c5ccoc5)[C@]4(C)CC[C@@H]3[C@@](C)(C2=O)[C@@H]([C@@H](O)C(=O)OC)C1(C)C` [SWIETENINE], the residual activity is listed as 14.03% in series [1] and 69.9% in series [2].
Taken in the same sequence, the figures for `COC(=O)[C@H](O)[C@H]1C(C)(C)[C@H](OC(C)=O)[C@@H]2CC3=C4CC(=O)O[C@@H](c5ccoc5)[C@]4(C)CC[C@@H]3[C@@]1(C)C2=O` [SWIETENOLIDE-3-ACETATE] were 54.05% and 66.25%.
`O=C(O)c1cc(O)c2c(c1)[C@H]([C@H]1c3cc(C(=O)O)cc(O)c3C(=O)c3c(O[C@@H]4O[C@H](CO)[C@@H](O)[C@H](O)[C@H]4O)cccc31)c1cccc(O[C@@H]3O[C@H](CO)[C@@H](O)[C@H](O)[C@H]3O)c1C2=O` [Sennoside A]: the residual activity in series [1] came to 122.9%; in series [2], 111.1%.
Regarding `CNC(=O)N(C)c1nnc(C(C)(C)C)s1` [TEBUTHIURON], the residual activity came to 87.52% in series [1] and 111.4% in series [2].
For `CCCCCNC(=N)N/N=C/c1c[nH]c2ccc(OC)cc12.O=C(O)/C=C\C(=O)O` [TEGASEROD MALEATE], in that order: 73.16% and 112.9%.
Turning to `Cc1scc2c1N(C(=O)CN1CCN(C)CC1)c1ccccc1NC2=O.Cl` [TELENZEPINE HYDROCHLORIDE], the residual activity was 99.27% in series [1] and 93.24% in series [2].
With `COP(=S)(OC)Oc1ccc(Sc2ccc(OP(=S)(OC)OC)cc2)cc1` [TEMEFOS], the residual activity amounted to 144.3% in series [1] and 89.27% in series [2].
For `COc1cc([C@@H]2c3cc4c(cc3[C@@H](O[C@@H]3O[C@@H]5CO[C@@H](c6cccs6)O[C@H]5[C@H](O)[C@H]3O)[C@H]3COC(=O)[C@H]23)OCO4)cc(OC)c1O` [TENIPOSIDE], in that order: 25.44% and 32.58%.
For `CN1C(C(=O)Nc2ccccn2)=C(O)c2sccc2S1(=O)=O` [TENOXICAM], in that order: 78.82% and 78.1%.
Regarding `CCC(=O)O[C@H]1CC[C@H]2[C@@H]3CCC4=CC(=O)CC[C@]4(C)[C@H]3CC[C@]12C` [TESTOSTERONE PROPIONATE], the residual activity is 121% in series [1] and 133.5% in series [2].
As to `CCCCNc1ccc(C(=O)OCCN(C)C)cc1.Cl` [TETRACAINE HYDROCHLORIDE], the residual activity in series [1] is recorded as 61.91%; in series [2], 88.3%.
For `CN(C)[C@@H]1C(O)=C(C(N)=O)C(=O)[C@@]2(O)C(O)=C3C(=O)c4c(O)cccc4[C@@](C)(O)[C@H]3C[C@@H]12.Cl` [TETRACYCLINE HYDROCHLORIDE], in that order: 118.1% and 97.72%.
For `O=C(O)Cc1cc(I)c(Oc2cc(I)c(O)c(I)c2)c(I)c1` [TETRAC], in that order: 33.41% and 71.42%.
For the compound `C[C@]12CC[C@@H](O)C[C@H]1CC[C@@H]1[C@@H]2C(=O)C[C@@]2(C)[C@H]1CC[C@]2(O)C(=O)CO` [TETRAHYDROCORTISONE], the figures for the residual activity in series [1] and in series [2] were 101.6% and 99.93%, respectively.
